Measured values: patent US20180037568A1, “MODULATORS OF METHYL MODIFYING ENZYMES, COMPOSITIONS AND USES THEREOF” (Constellation Pharmaceuticals, Inc., priority 2015, published 2018)
Like-named read-outs stand apart in the source and are kept apart here.

How the values were obtained:
[1] = system: H3K27me3 mark; experiment: H3K27me3 Alpha Hela Assay (AlphaLISA); type: cell-based; conditions: Hela cells, read-out: EZH2 Cell H3K27me3 Alpha HeLa (EC50 K27me3)
Protocol: EC50 Measurements for Inhibitors in HeLa Cell Assays
H3K27me3 Alpha Hela Assay (AlphaLISA). Ten different doses of each test compound (in a series of 3-fold dilutions) were plated in duplicate 384-well tissue culture treated plates (Catalog #781080; Greiner Bio One; Monroe, N.C.). Hela cells grown in culture were trypsinized and counted using a Countess® cell counter (Catalog # C10281; Life Technologies, Grand Island, N.Y.). Cell were diluted to 67,000 cells per mL in 10% DMEM (Catalog #10569-010 Life Technologies, Grand Island, N.Y.) and 15 μL (1,000 cells) were plated into each well using the Biotek MicroFlo™ Select Dispenser (BioTek Instruments, Inc. Vermont, USA),) of the 384-well plate. Plates were incubated at 37° C./5% CO2 for 72 hrs. One of the duplicate plates was processed for HeLa assay and the other for viability.
To the plate processed for AlphaLISA was added 5 μL per well Cell-Histone Lysis buffer (1×) (Catalog # AL009F1 Perkin Elmer; Waltham, Mass.) and the plate was incubated at RT for 30 minutes on a plate shaker with low speed (Model#4625-Q Thermo Scientific; Waltham, Mass.). Then, 10 μL per well Histone Extraction buffer (catalog # AL009F2; Perkin Elmer; Waltham, Mass.) was added and the plate further incubated at RT for 20 min on plate shaker with low speed. To each well was then added 10 μL per well of a 5× mix of anti-K27me3 acceptor beads plus Biotinylated anti-Histone H3 (C-ter) Antibody (diluted to 3 nM final) (Catalog #AL118 Perkin Elmer; Waltham, Mass.). Dilution of the acceptor beads and then anti-Histone H3 was with 1× Histone Detection buffer (Catalog # AL009F3 Perkin Elmer; Waltham, Mass.) which was produced diluted from the 10× stock provided. The plate was sealed with an aluminum plate sealer and incubated at 23° C. for 60 min. We then added 10 μL 5× solution of Streptavidin Donor beads (Catalog #6760002 Perkin Elmer; Waltham, Mass.) (20 μg/mL final in 1× Histone Detection Buffer), sealed the plate with Aluminum plate sealer and incubated at 23° C. for 30 min. The plates were then read using an EnVision-Alpha Reader (model #2104 Perkin Elmer; Waltham, Mass.).
Data from both assays was analyzed using Assay Assistant (Constellation Pharmaceuticals In-house product) and Activity Base (IDBS Ltd, Surrey, UK) template. Data files were imported to Assay Assistant and assay conditions were specified. A unique Analysis ID was created and the data files exported to Activity Base. An analysis template was created on Activity Base to measure dose-dependent inhibition of H3K27me3 mark and cell viability respectively. Readout of DMSO wells were used to normalize the data. Resulting curves were fitted using Activity base software Model 205 (IDBS Ltd, Surrey, UK). The data was checked for quality, validated and integrated in excel format using SARview (IDBS Ltd, Surrey, UK).

[2] = target: T1, PRC2 containing wt EZH2 (Homo sapiens, UniProt Q15910); experiment: EZH2 pep BSA Brij 4.0 LowE (IC50): 3H-SAM incorporation into biotinylated H3 peptide; type: biochemical
T1 construct: made in house
T1 sequence (Q15910 whole entry): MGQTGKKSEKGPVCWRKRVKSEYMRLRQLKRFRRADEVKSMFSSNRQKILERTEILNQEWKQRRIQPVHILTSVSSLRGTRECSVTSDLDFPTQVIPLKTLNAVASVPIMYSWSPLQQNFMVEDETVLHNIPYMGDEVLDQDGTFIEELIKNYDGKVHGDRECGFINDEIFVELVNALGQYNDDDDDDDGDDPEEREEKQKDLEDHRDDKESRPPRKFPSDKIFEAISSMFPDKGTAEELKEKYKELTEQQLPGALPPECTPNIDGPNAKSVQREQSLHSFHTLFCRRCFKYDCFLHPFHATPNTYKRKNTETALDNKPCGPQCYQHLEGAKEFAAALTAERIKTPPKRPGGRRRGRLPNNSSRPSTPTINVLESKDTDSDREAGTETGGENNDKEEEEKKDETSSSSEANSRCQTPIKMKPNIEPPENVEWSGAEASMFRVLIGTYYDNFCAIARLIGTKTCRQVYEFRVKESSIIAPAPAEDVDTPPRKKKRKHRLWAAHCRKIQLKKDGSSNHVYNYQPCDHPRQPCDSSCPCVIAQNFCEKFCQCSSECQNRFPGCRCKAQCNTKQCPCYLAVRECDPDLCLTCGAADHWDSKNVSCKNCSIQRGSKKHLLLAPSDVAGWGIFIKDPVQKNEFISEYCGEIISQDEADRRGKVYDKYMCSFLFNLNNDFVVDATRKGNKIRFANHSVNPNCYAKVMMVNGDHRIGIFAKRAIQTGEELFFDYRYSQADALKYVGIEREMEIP
T1 sequence (O75530 whole entry partner): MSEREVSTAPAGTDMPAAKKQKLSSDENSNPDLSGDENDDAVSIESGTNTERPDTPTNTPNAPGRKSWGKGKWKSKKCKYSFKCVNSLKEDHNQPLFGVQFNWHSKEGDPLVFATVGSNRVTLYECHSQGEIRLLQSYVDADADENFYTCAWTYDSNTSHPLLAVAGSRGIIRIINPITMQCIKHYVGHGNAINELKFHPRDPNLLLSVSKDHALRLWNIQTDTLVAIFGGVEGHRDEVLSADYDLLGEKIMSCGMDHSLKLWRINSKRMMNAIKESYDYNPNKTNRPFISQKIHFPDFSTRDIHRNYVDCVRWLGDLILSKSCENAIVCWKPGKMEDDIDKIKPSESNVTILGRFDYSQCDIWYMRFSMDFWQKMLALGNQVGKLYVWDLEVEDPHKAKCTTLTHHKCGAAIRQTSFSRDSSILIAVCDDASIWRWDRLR
T1 sequence (Q15022 whole entry partner): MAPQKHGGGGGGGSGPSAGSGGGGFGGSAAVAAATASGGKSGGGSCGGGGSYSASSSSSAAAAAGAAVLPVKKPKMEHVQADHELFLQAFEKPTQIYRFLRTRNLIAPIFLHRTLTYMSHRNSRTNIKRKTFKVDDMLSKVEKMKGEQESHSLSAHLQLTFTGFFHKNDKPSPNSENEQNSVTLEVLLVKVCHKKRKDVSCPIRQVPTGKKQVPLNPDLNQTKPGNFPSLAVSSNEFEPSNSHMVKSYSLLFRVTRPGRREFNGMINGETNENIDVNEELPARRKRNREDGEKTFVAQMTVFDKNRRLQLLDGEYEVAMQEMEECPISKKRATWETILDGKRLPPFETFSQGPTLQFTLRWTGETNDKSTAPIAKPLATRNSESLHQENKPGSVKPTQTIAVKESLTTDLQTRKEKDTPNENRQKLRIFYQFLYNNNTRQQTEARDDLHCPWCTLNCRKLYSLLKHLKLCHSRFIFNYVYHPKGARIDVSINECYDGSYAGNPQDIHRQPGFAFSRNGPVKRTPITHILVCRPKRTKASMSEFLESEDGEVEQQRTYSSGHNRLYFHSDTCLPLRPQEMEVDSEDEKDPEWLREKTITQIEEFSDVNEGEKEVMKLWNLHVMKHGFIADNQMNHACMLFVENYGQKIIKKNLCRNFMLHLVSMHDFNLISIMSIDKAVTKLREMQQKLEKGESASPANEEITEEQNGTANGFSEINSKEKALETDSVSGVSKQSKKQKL
T1 sequence (Q09028 whole entry partner): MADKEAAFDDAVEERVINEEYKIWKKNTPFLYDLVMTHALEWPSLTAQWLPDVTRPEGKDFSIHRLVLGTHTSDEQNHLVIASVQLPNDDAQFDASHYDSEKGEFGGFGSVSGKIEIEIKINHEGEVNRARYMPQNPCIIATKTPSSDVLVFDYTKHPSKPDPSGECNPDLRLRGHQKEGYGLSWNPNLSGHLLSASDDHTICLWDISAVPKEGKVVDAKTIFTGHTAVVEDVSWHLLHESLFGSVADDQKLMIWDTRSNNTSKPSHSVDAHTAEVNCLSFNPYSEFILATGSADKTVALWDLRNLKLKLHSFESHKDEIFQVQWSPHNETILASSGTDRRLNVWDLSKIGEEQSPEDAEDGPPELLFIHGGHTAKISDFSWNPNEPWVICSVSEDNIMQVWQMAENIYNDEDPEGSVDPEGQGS
T1 sequence (Q6ZN18 whole entry partner): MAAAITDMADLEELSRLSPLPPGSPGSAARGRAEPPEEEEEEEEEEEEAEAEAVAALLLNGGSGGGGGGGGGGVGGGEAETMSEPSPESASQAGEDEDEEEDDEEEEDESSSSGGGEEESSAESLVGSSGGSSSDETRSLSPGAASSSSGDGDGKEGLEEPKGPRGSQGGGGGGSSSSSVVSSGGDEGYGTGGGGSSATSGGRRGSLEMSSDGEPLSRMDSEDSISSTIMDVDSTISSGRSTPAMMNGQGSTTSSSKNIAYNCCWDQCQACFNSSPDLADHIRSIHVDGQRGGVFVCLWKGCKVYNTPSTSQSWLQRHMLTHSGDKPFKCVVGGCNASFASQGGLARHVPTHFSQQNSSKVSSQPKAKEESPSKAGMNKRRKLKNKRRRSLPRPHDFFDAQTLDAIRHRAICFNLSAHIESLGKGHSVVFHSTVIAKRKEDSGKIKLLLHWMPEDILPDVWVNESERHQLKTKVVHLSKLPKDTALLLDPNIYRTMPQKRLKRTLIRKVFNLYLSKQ
Protocol: EZH2 Pep BSA Brij 4.0 LowE (IC50):
Compound potencies were assessed through incorporation of ^3H-SAM into a biotinylated H3 peptide. Specifically, PRC2 containing wt EZH2 (20 pM), (pentameric complexes prepared in-house) was pre-incubated with ^3H-SAM (0.9 μM), 2 μM H3K27me3 activating peptide (H2N-RKQLATKAAR(Kme3)SAPATGGVKKP-amide) and compounds (as 10 point duplicate dose response titrations in DMSO, final assay 0.8% DMSO (v/v)) for 120 min in 50 mM Tris (pH 8.5), 1 mM DTT, 0.07 mM Brij-35, 0.1% BSA, and 0.8% DMSO in a total volume of 12.5 μl. Reaction was initiated with biotinylated H3 substrate peptide (H2N-RKQLATKAAR(Kme1)SAPATGGVKKP-NTPEGBiot) as a 2 μM stock in 12.5 μl of buffer and allowed to react at room temperature for 5 h. Quenching was accomplished by addition of 20 μl of STOP solution (50 mM Tris (pH 8.5), 200 mM EDTA, 2 mM SAH). 35 μl of the quenched solution was transferred to Streptavidin Flashplates, incubated overnight, washed, and read in a TopCount Reader (Perkin Elmer). IC50s were calculated relative to fully active and no enzyme control wells using non-linear least square four parameter fits.

[3] = EZH2 pep BSA Brij 4.0 LowE (IC50), 20 pM PRC2 wt EZH2, 0.9 μM 3H-SAM, biotinylated H3 peptide substrate, 2 μM H3K27me3 activating peptide
[4] = read-out: EZH2 pep BSA Brij 4.0 LowE (IC50); 20 pM PRC2 wt EZH2, 0.9 μM 3H-SAM, biotinylated H3 peptide substrate, 2 μM H3K27me3 activating peptide
[5] = 20 pM PRC2 wt EZH2, 0.9 μM 3H-SAM, biotinylated H3 peptide substrate, 2 μM H3K27me3 activating peptide; read-out: EZH2 pep BSA Brij 4.0 LowE (IC50)

SMILES	IC50 [2, 3] [nM]	IC50 [2, 5] [nM]	other results
COc1cc(C)[nH]c(=O)c1CNC(=O)c1c(C)n(C(C)C2CCN(CC(C)(F)F)C(C)C2)c2ccccc12 (centres unmarked) [Compound 73]	< 100	–	EC50 ([1]; 72 hrs): < 400 nM
CCC1CC(C(C)n2c(C)c(C(=O)NCc3c(OC)cc(C)[nH]c3=O)c3ccccc32)CCN1CC(F)F (centres unmarked) [Compound 59]	–	–	IC50 [2, 4]: < 100 nM
COc1cc(C)[nH]c(=O)c1CNC(=O)c1c(C)n(C(C)C2CCN(CC(C)(F)F)C(C)C2)c2ccccc12 (centres unmarked) [Compound 72]	100 to 1000	–	EC50 ([1]; 72 hrs): > 2000 nM
COc1cc(C)[nH]c(=O)c1CNC(=O)c1c(C)n(C(C)C2CCN(C(C)=O)C(C)C2)c2ccccc12 (centres unmarked) [Compound 78]	–	< 100	–
Cc1cc(C)c(CNC(=O)c2c(C)n(C(C)C3CCNC(CC(F)(F)F)C3)c3ccccc23)c(=O)[nH]1 (centres unmarked) [Compound 85]	–	–	IC50 [2, 4]: < 100 nM
COc1cc(C)[nH]c(=O)c1CNC(=O)c1c(C)n(C(C)C2CCNC(c3ccccc3F)C2)c2ccccc12 (centres unmarked) [Compound 50]	< 100	–	–
Cc1cc(C)c(CNC(=O)c2c(C)n(C(C)C3CCN(C)C(C(F)(F)F)C3)c3ccccc23)c(=O)[nH]1 (single isomer, unassigned) [Compound 26, N-((4,6-dimethyl-2-oxo-1,2-dihydropyridin-3-yl)methyl)-2-methyl-1-(1-(1-methyl-2-(trifluoromethyl)piperidin-4-yl)ethyl)-1H-indole-3-carboxamide]	–	–	EC50 ([1]; 72 hrs): < 400 nM; IC50 [2, 4]: < 100 nM
Cc1cc(C)c(CNC(=O)c2c(C)n(C(C)C3CCN(C)C(C(F)(F)F)C3)c3ccccc23)c(=O)[nH]1 (single isomer, unassigned) [Compound 25, N-((4,6-dimethyl-2-oxo-1,2-dihydropyridin-3-yl)methyl)-2-methyl-1-(1-(1-methyl-2-(trifluoromethyl)piperidin-4-yl)ethyl)-1H-indole-3-carboxamide]	< 100	–	EC50 ([1]; 72 hrs): > 2000 nM
CCS(=O)(=O)N1CCC(C(C)n2c(C)c(C(=O)NCc3c(OC)cc(C)[nH]c3=O)c3ccccc32)CC1C (centres unmarked) [Compound 91]	< 100	–	EC50 ([1]; Homo sapiens, HeLa, 72 h): > 2000 nM
COc1cc(C)[nH]c(=O)c1CNC(=O)c1c(C)n(C(C)C2CCNC(c3cccc(C(F)(F)F)c3)C2)c2ccccc12 (centres unmarked) [Compound 76]	–	< 100	–
COc1cc(C)[nH]c(=O)c1CNC(=O)c1c(C)n(C(C)C2CCNC(c3cccc(F)c3)C2)c2ccccc12 (centres unmarked) [Compound 65]	–	< 100	–
COc1cc(C)[nH]c(=O)c1CNC(=O)c1c(C)n(C(C)C2CCNC(c3cccc(F)c3)C2)c2ccccc12 (centres unmarked) [Compound 51]	–	< 100	–
Cc1cc(C)c(CNC(=O)c2c(C)n(C(C)C3CCN(CC(C)(F)F)C(C)C3)c3ccccc23)c(=O)[nH]1 (centres unmarked) [Compound 74]	< 100	–	–
Cc1cc(C)c(CNC(=O)c2c(C)n(C(C)C3CCNC(CC(F)(F)F)C3)c3ccccc23)c(=O)[nH]1 (centres unmarked) [Compound 86]	–	–	IC50 [2, 4]: < 100 nM
COc1cc(C)[nH]c(=O)c1CNC(=O)c1c(C)n(C(C)C2CCN(C(C)=O)C(CC(F)(F)F)C2)c2ccccc12 (centres unmarked) [Compound 80]	–	< 100	–
Cc1cc(C)c(CNC(=O)c2c(C)n(C(C)C3CCN(CC(C)(F)F)C(C)C3)c3ccccc23)c(=O)[nH]1 (centres unmarked) [Compound 49]	100 to 1000	–	–
COc1cc(C)[nH]c(=O)c1CNC(=O)c1c(C)n(C(C)C2CCN(C(C)=O)C(CC(F)(F)F)C2)c2ccccc12 (centres unmarked) [Compound 81]	–	< 100	–
CCC1CC(C(C)n2c(C)c(C(=O)NCc3c(OC)cc(C)[nH]c3=O)c3ccccc32)CCN1CC(F)F (centres unmarked) [Compound 63]	–	–	IC50 [2, 4]: < 100 nM
COc1cc(C)[nH]c(=O)c1CNC(=O)c1c(C)n(C(C)C2CCN(CC(C)(F)F)C(C)C2)c2ccccc12 (centres unmarked) [Compound 64]	< 100	–	–
Cc1cc(C)c(CNC(=O)c2c(C)n(C(C)C3CCN(CC(C)(F)F)C(C)C3)c3ccccc23)c(=O)[nH]1 (centres unmarked) [Compound 58]	< 100	–	–

SMILES	IC50 [2, 3] [nM]	IC50 [2, 5] [nM]	other results
COC(=O)N1CCC(C(C)n2c(C)c(C(=O)NCc3c(OC)cc(C)[nH]c3=O)c3ccccc32)CC1C (centres unmarked) [Compound 82]	–	100 to 1000	–
Cc1cc(C)c(CNC(=O)c2c(C)n(C(C)C3CCNC(c4cccc(F)c4)C3)c3ccccc23)c(=O)[nH]1 (centres unmarked) [Compound 53]	–	< 100	–
COc1cc(C)[nH]c(=O)c1CNC(=O)c1c(C)n(C(C)C2CCNC(c3cccc(C(F)(F)F)c3)C2)c2ccccc12 (centres unmarked) [Compound 77]	–	< 100	–
COc1cc(C)[nH]c(=O)c1CNC(=O)c1c(C)n(C(C)C2CCN(C)C(c3cccc(F)c3)C2)c2ccccc12 (centres unmarked) [Compound 57]	–	< 100	–
Cc1cc(C)c(CNC(=O)c2c(C)n(C(C)C3CCNC(c4cccc(F)c4)C3)c3ccccc23)c(=O)[nH]1 (centres unmarked) [Compound 52]	–	< 100	–
Cc1cc(C)c(CNC(=O)c2c(C)n(C(C)C3CCN(C)C(c4cccc(F)c4)C3)c3ccccc23)c(=O)[nH]1 (centres unmarked) [Compound 56]	–	< 100	–
CCC1CC(C(C)n2c(C)c(C(=O)NCc3c(OC)cc(C)[nH]c3=O)c3ccccc32)CCN1CC(F)F (centres unmarked) [Compound 60]	–	–	IC50 [2, 4]: < 100 nM
COC(=O)N1CCC(C(C)n2c(C)c(C(=O)NCc3c(OC)cc(C)[nH]c3=O)c3ccccc32)CC1C (centres unmarked) [Compound 79]	–	< 100	–
COc1cc(C)[nH]c(=O)c1CNC(=O)c1c(C)n(C(C)C2CCNC(CC(F)(F)F)C2)c2ccccc12 (centres unmarked) [Compound 87]	100 to 1000	–	–
Cc1cc(C)c(CNC(=O)c2c(C)n(C(C)C3CCN(CC(C)(F)F)C(C)C3)c3ccccc23)c(=O)[nH]1 (centres unmarked) [Compound 48]	100 to 1000	–	–
COc1cc(C)[nH]c(=O)c1CNC(=O)c1c(C)n(C(C)C2CCN(C(C)=O)C(CC(F)(F)F)C2)c2ccccc12 (centres unmarked) [Compound 75]	–	< 100	–
CCC1CC(C(C)n2c(C)c(C(=O)NCc3c(C)cc(C)[nH]c3=O)c3ccccc32)CCN1CC(F)F (centres unmarked) [Compound 67]	< 100	–	–
Cc1cc(C)c(CNC(=O)c2c(C)n(C(C)C3CCNC(CC(F)(F)F)C3)c3ccccc23)c(=O)[nH]1 (centres unmarked) [Compound 83]	< 100	–	–
CCC1CC(C(C)n2c(C)c(C(=O)NCc3c(OC)cc(C)[nH]c3=O)c3ccccc32)CCN1CC(F)F (centres unmarked) [Compound 54]	< 100	–	–
CCS(=O)(=O)N1CCC(C(C)n2c(C)c(C(=O)NCc3c(OC)cc(C)[nH]c3=O)c3ccccc32)CC1C (centres unmarked) [Compound 94]	100 to 1000	–	–
CCS(=O)(=O)N1CCC(C(C)n2c(C)c(C(=O)NCc3c(OC)cc(C)[nH]c3=O)c3ccccc32)CC1C (centres unmarked) [Compound 93]	100 to 1000	–	–
COc1cc(C)[nH]c(=O)c1CNC(=O)c1c(C)n(C(C)C2CCN(C)C(c3cccc(F)c3)C2)c2ccccc12 (centres unmarked) [Compound 55]	–	< 100	–
Cc1cc(C)c(CNC(=O)c2c(C)n(C(C)C3CCN(C)C(c4cccc(F)c4)C3)c3ccccc23)c(=O)[nH]1 (centres unmarked) [Compound 61]	–	< 100	–
CCC1CC(C(C)n2c(C)c(C(=O)NCc3c(OC)cc(C)[nH]c3=O)c3ccccc32)CCN1CC(F)F (centres unmarked) [Compound 62]	–	–	IC50 [2, 4]: < 100 nM
